Some test systems named below: DU-145; NCI-H460; U-251; NCI-H226; COLO 205; SNB-19; LOX IMVI; A498; SW-620; RPMI-8226; TK-10; 786-0; OVCAR-3; OVCAR-8; K562; SNB-75; HOP-62; RXF 393; UACC-62; SK-OV-3.
What all share (assay): NCI-60 cell line screen, 48 h

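Grown in 96-well plates, cells were treated for 48 hours with each compound at five concentrations. Insufficient inhibition: endpoint recorded as highest concentration tested. At the GI50, growth is halved.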 Activity calls are given as the source filed them. Cut-off read from the data, not from the text of the source: active = GI50 up to about 1.1 µM and inactive = higher.

Take `COc1cccc(C2CC(C)(N3CCCC3)Oc3cc4c(cc32)OCO4)c1O` (stereo not given): the GI50 with DU-145 was 32 µM (inactive); in the assay with NCI-H460, 28.2 µM (inactive); in the assay with U-251, 25.1 µM (inactive); with NCI-H226, 19.1 µM (inactive); in the assay on COLO 205, 19.1 µM (inactive); in the assay on SNB-19, 37.6 µM (inactive). The GI50 in the assay on LOX IMVI is 28.8 µM (inactive); with A498, 28.3 µM (inactive); in the assay on SW-620 it was 25.8 µM (inactive); in the assay on RPMI-8226, 21.3 µM (inactive); in the assay on TK-10, 37.3 µM (inactive); in the assay with 786-0, 32.8 µM (inactive). In addition, the GI50 in the assay with OVCAR-3 is 20 µM (inactive); in the assay with OVCAR-8 it was 30.2 µM (inactive); in the assay with K562, 9.31 µM (inactive); in the assay with SNB-75, 15.5 µM (inactive); in the assay on HOP-62, 27 µM (inactive); with RXF 393, 26.7 µM (inactive). The GI50 is 22.1 µM (inactive) with UACC-62 and 29.6 µM (inactive) with SK-OV-3.

For the compound `Cc1cn(S(=O)(=O)c2ccccc2)c2c(OCc3ccccc3)cc(NS(C)(=O)=O)cc12`, the GI50 is 31.3 µM (inactive) in the assay with DU-145; 18.5 µM (inactive) in the assay on NCI-H460; 10.6 µM (inactive) in the assay with U-251; 16.1 µM (inactive) in the assay on NCI-H226; 10.3 µM (inactive) with COLO 205; 43.3 µM (inactive) in the assay with SNB-19. Moreover, the GI50 in the assay with LOX IMVI is 11.4 µM (inactive); with A498, 8.15 µM (inactive); in the assay on SW-620, 17.8 µM (inactive); in the assay on RPMI-8226 it was 13.2 µM (inactive); with TK-10, > 85.9 µM (inactive); in the assay on 786-0, 16.4 µM (inactive). Moreover, the GI50 is 10.6 µM (inactive) in the assay with OVCAR-3; 32 µM (inactive) in the assay with OVCAR-8; 20.1 µM (inactive) in the assay on K562; 22.9 µM (inactive) in the assay with SNB-75; 50.2 µM (inactive) in the assay on HOP-62; 14.6 µM (inactive) in the assay with RXF 393. Further, the GI50 in the assay with UACC-62 was 17.9 µM (inactive); with SK-OV-3 it was 40.9 µM (inactive).

`CC1=NN(c2nc(N)nc(CBr)n2)C(C)(C)C1`: the GI50 is 3.3 µM (inactive) in the assay on DU-145; 7.64 µM (inactive) with NCI-H460; 6.76 µM (inactive) in the assay on U-251; 2.61 µM (inactive) with NCI-H226; 3.03 µM (inactive) with COLO 205; 16.7 µM (inactive) with SNB-19. Further, the GI50 in the assay on LOX IMVI is 0.708 µM (active); with A498, 12.9 µM (inactive); in the assay on SW-620 it was 4.19 µM (inactive); in the assay on RPMI-8226, 1.13 µM (inactive); in the assay on TK-10 it was 4.25 µM (inactive); in the assay on 786-0 it was 0.692 µM (active). Also, the GI50 in the assay with OVCAR-3 was 3.42 µM (inactive); with OVCAR-8, 5.45 µM (inactive); in the assay on K562, 2.02 µM (inactive); with SNB-75, 9.75 µM (inactive); in the assay on HOP-62, 19.7 µM (inactive); in the assay with RXF 393, 2.78 µM (inactive). Also, the GI50 is 7.28 µM (inactive) in the assay on UACC-62 and 17.3 µM (inactive) with SK-OV-3.

As to `CCCCCCCCCCCCCC(=O)NO`, the GI50 is 3.35 µM (inactive) in the assay on DU-145; 11.8 µM (inactive) in the assay on NCI-H460; 10.7 µM (inactive) with U-251; 5.05 µM (inactive) with NCI-H226; 10.5 µM (inactive) in the assay on COLO 205; 23.9 µM (inactive) in the assay with SNB-19. The GI50 is 3.99 µM (inactive) in the assay on LOX IMVI; 23.5 µM (inactive) with A498; 16.3 µM (inactive) in the assay with SW-620; 5 µM (inactive) in the assay on RPMI-8226; 19.9 µM (inactive) with TK-10; 7.1 µM (inactive) with 786-0. The GI50 in the assay on OVCAR-3 was 10.1 µM (inactive); in the assay on OVCAR-8 it was 12.1 µM (inactive); in the assay with K562, 3.03 µM (inactive); with SNB-75, 11.4 µM (inactive); with HOP-62 it was 17.4 µM (inactive); with RXF 393, 5.75 µM (inactive). The values for the GI50 with UACC-62 and in the assay on SK-OV-3 were 6.68 µM (inactive) and 30.5 µM (inactive), respectively.

Consider `COc1ccc2c(c1)-c1nc(=S)n(CCCN(C)C)c3ccc([N+](=O)[O-])c(c13)N2`, for which the GI50 was 0.689 µM (active) in the assay with DU-145; 0.358 µM (active) in the assay on NCI-H460; 0.592 µM (active) in the assay with U-251; 1.36 µM (inactive) with NCI-H226; 0.656 µM (active) in the assay with COLO 205; 0.8 µM (active) in the assay on SNB-19. Moreover, the GI50 in the assay with LOX IMVI was 0.53 µM (active); in the assay with A498, 4.09 µM (inactive); in the assay on SW-620, 0.344 µM (active); in the assay with RPMI-8226 it was 0.693 µM (active); with TK-10, 2.8 µM (inactive); with 786-0, 0.279 µM (active). Besides, the GI50 is 1.59 µM (inactive) in the assay on OVCAR-3; 0.456 µM (active) with OVCAR-8; 0.454 µM (active) in the assay with K562; 6.32 µM (inactive) in the assay on SNB-75; 0.451 µM (active) in the assay on HOP-62; 0.471 µM (active) with RXF 393. For the same compound, the results for the GI50 with UACC-62 and with SK-OV-3 were 12.1 µM (inactive) and 1.11 µM (active), respectively.

For the compound `C=CO/N=[N+](\[O-])N(CC)CC`, the GI50 in the assay on DU-145, with NCI-H460, in the assay on U-251, in the assay on NCI-H226, in the assay with COLO 205 and in the assay on SNB-19 was > 100 µM (inactive) each time. Besides, the GI50 with LOX IMVI, with A498, in the assay on SW-620, in the assay on RPMI-8226, in the assay on TK-10 and in the assay on 786-0 was > 100 µM (inactive) throughout. Besides, the GI50 in the assay with OVCAR-3, with OVCAR-8, in the assay on K562, in the assay on SNB-75, in the assay with HOP-62 and with RXF 393 was > 100 µM (inactive) in each case. For the same compound, the GI50 in the assay on UACC-62 and in the assay with SK-OV-3 was > 100 µM (inactive) in each case.

Values taken from ChEMBL document CHEMBL1201862, “PubChem BioAssay data set” (2004).
